System: not given
Test: not given
Settings: chronic oral therapy; cited from earlier work

| SMILES | abstinence of opiate addicts |
| --- | --- |
| O=C1CC[C@@]2(O)[C@H]3Cc4ccc(O)c5c4[C@@]2(CCN3CC2CC2)[C@H]1O5 [naltrexone] | remain abstinent |

System: Straub tail induced by morphine in mice
Test: not given
Settings: mouse; cited from earlier work

| SMILES | prevention of Straub tail induced by morphine |
| --- | --- |
| C=CCN1CC[C@]23c4c5ccc(O)c4O[C@H]2C(=O)CC[C@@]3(O)[C@H]1C5 [Naloxone] | prevent the induction of Straub tail |
| C=CCN1CC[C@]23c4c5ccc(O)c4O[C@H]2[C@@H](O)C=C[C@H]3[C@H]1C5 [nalorphine] | prevent the induction of Straub tail |

System: Straub tail induced by morphine sulfate in mice
Test: Narcotic antagonist test (mouse anti-Straub tail test against morphine)
Type: in vivo, mouse (female CF1 S)
Settings: oral, vs 30 mg/kg morphine sulfate i.p., read-out: EFFECT ED50 Anti-Straub Tail (Oral)
Description: This property is the basis of a mouse test for narcotic antagonists.
Female CF1 S mice (fasted 17-21 hrs.), 5 per dose, were injected orally or subcutaneously with test drug at 0.67, 2, 6, 18, 54 and 162 mg/kg or other appropriate doses in 0.20 ml 1% Methocel® per mouse. Five minutes later, 30 mg/kg of morphine sulfate in 0.20 ml 1% Methocel® per mouse was given intraperitoneally. Starting ten minutes later, the mice were observed continuously for 5 minutes for evidence of Straub tail. Prevention of Straub tail during this observation period was taken as indication of narcotic antagonist ability.

| SMILES | ED50 |
| --- | --- |
| O=C1CC[C@@]2(F)[C@H]3Cc4ccc(O)c5c4[C@@]2(CCN3CC2CC2)C1O5 (stereo partly shown) [Example 3, 17-(Cyclopropylmethyl)-4,5-epoxy-14-fluoro-3-hydroxymorphinan-6-one] | 0.09 mg/kg |

Same assay, conditions: sc, vs 30 mg/kg morphine sulfate i.p., read-out: EFFECT ED50 Anti-Straub Tail (s.c.)

| SMILES | ED50 |
| --- | --- |
| COc1ccc2c3c1O[C@H]1C4(CCC5(F)C(C2)N(CC2CC2)CCC315)OCCO4 (stereo partly shown) [Example 1] | 1.7 mg/kg |
| COc1ccc2c3c1OC1C(=O)CC[C@@]4(F)[C@@H](C2)N(CC2CC2)CC[C@]314 (stereo partly shown) [Example 2, 17-(Cyclopropylmethyl)-4,5-epoxy-14-fluoro-3-methoxymorphinan-6-one] | 0.33 mg/kg |
| O=C1CC[C@@]2(F)[C@H]3Cc4ccc(O)c5c4[C@@]2(CCN3CC2CC2)C1O5 (stereo partly shown) [Example 3, 17-(Cyclopropylmethyl)-4,5-epoxy-14-fluoro-3-hydroxymorphinan-6-one] | 0.01 mg/kg |
| Oc1ccc2c3c1O[C@H]1[C@@H](O)CCC4(F)C(C2)N(CC2CCC2)CCC314 (stereo partly drawn) [Example 6, 17-(Cyclobutylmethyl)-4,5-epoxy-14-fluoro-morphinan-3,6-diol (α-isomer)] | 0.41 mg/kg |
| CN1CC[C@]23c4c5ccc(O)c4OC2C(=O)CC[C@@]3(F)[C@H]1C5 (stereo partly shown) [Example 7, 17-Methyl-14-fluoro-3-hydroxy-4,5-epoxymorphinan-6-one] | > 81 mg/kg |
| COc1ccc2c3c1O[C@H]1C4(CCC5(F)C(C2)N(CC2CCC2)CCC315)OCCO4 (stereo partly shown) [Example 8] | > 135 mg/kg |
| COc1ccc2c3c1O[C@H]1C(=O)CCC4(F)C(C2)N(CC2CCC2)CCC314 (stereo partly shown) [Example 9] | 6 mg/kg |
| COc1ccc2c3c1O[C@H]1C4(CCC5(F)C(C2)N(C)CCC315)OCCO4 (stereo partly shown) [Example 10] | > 135 mg/kg |
| COc1ccc2c3c1O[C@H]1C(=O)CCC4(F)C(C2)N(C)CCC314 (stereo partly shown) [Example 11] | > 135 mg/kg |

System: Straub tail reaction in mice
Test: Narcotic test (Straub tail reaction)
Type: in vivo, mouse (CF1 S female)
Settings: 0.4 h; mouse; oral; within 24 minutes after dosing; read-out: EFFECT ED50 Straub-tail (Oral)
Description: Narcotic analgesics which have only agonist activity produce in mice an erection and arching of the tail (90° or more) which is referable to spinal cord stimulation. This Straub tail reaction is not produced by other analgesics, including the narcotic antagonists.
The method used was modified from Shemano, I., and Wendel, H., Tox. Appl. Pharm., 6, 334-9 (1964). CF1 S female mice (18-21 g), 10-20 mice per dose, were […] with log scaled doses of analgesic in 1% aqueous methylcellulose. A positive Straub tail response was recorded if a tail was erected 90° or more for 5 seconds at any time within 24 minutes after dosing. A quantal Straub tail ED50 was calculated by the moving average method [Thompson, W. R., Bact. Rev., 11, 115-145 (1947)].

| SMILES | ED50 |
| --- | --- |
| COc1ccc2c3c1O[C@H]1C4(CCC5(F)C(C2)N(CC2CC2)CCC315)OCCO4 (stereo partly shown) [Example 1] | > 135 mg/kg |
| Oc1ccc2c3c1O[C@H]1[C@@H](O)CCC4(F)C(C2)N(CC2CCC2)CCC314 (stereo partly drawn) [Example 6, 17-(Cyclobutylmethyl)-4,5-epoxy-14-fluoro-morphinan-3,6-diol (α-isomer)] | > 135 mg/kg |
| COc1ccc2c3c1O[C@H]1C4(CCC5(F)C(C2)N(CC2CCC2)CCC315)OCCO4 (stereo partly shown) [Example 8] | > 135 mg/kg |
| COc1ccc2c3c1O[C@H]1C(=O)CCC4(F)C(C2)N(CC2CCC2)CCC314 (stereo partly shown) [Example 9] | > 135 mg/kg |
| COc1ccc2c3c1O[C@H]1C4(CCC5(F)C(C2)N(C)CCC315)OCCO4 (stereo partly shown) [Example 10] | > 135 mg/kg |
| COc1ccc2c3c1O[C@H]1C(=O)CCC4(F)C(C2)N(C)CCC314 (stereo partly shown) [Example 11] | 45 mg/kg |

Same assay, conditions: Mus musculus, po, 0.4 h, read-out: EFFECT ED50 Straub-tail (Oral)

| SMILES | ED50 |
| --- | --- |
| COc1ccc2c3c1OC1C(=O)CC[C@@]4(F)[C@@H](C2)N(CC2CC2)CC[C@]314 (stereo partly shown) [Example 2, 17-(Cyclopropylmethyl)-4,5-epoxy-14-fluoro-3-methoxymorphinan-6-one] | > 135 mg/kg |
| O=C1CC[C@@]2(F)[C@H]3Cc4ccc(O)c5c4[C@@]2(CCN3CC2CC2)C1O5 (stereo partly shown) [Example 3, 17-(Cyclopropylmethyl)-4,5-epoxy-14-fluoro-3-hydroxymorphinan-6-one] | > 135 mg/kg |
| CN1CC[C@]23c4c5ccc(O)c4OC2C(=O)CC[C@@]3(F)[C@H]1C5 (stereo partly shown) [Example 7, 17-Methyl-14-fluoro-3-hydroxy-4,5-epoxymorphinan-6-one] | 18.7 mg/kg |

System: writhing syndrome induced by phenylquinone in mice
Test: Analgesic test (phenylquinone writhing, anti-PQW)
Type: in vivo, mouse (female white mice)
Settings: mouse; oral; phenylquinone i.p.; read-out: EFFECT ED50 Anti-PQW (Oral)
Description: A standard procedure for detecting and comparing the analgesic activity of compounds in this series for which there is good correlation with human efficacy is the standard phenylquinone writhing test modified from Siegmund, et al., Proc. Soc. Exp. Biol. Med., 95, 729 (1957). A test compound suspended in 1% Methocel® was given orally to fasted (17-21 hours) female white mice, 5-20 animals per double blind test. Aqueous phenylquinone (0.1% phenyl-p-benzoquinone) was injected intraperitoneally at 24 minutes later using 0.20 ml per mouse. […] The effective analgesic dose for 50% of the mice (ED50) was calculated by the moving average method of Thompson, W. R., Bact. Rev., 11, 115-145 (1947).

| SMILES | ED50 |
| --- | --- |
| COc1ccc2c3c1O[C@H]1C4(CCC5(F)C(C2)N(CC2CC2)CCC315)OCCO4 (stereo partly shown) [Example 1] | 42 mg/kg |
| COc1ccc2c3c1OC1C(=O)CC[C@@]4(F)[C@@H](C2)N(CC2CC2)CC[C@]314 (stereo partly shown) [Example 2, 17-(Cyclopropylmethyl)-4,5-epoxy-14-fluoro-3-methoxymorphinan-6-one] | > 135 mg/kg |
| O=C1CC[C@@]2(F)[C@H]3Cc4ccc(O)c5c4[C@@]2(CCN3CC2CC2)C1O5 (stereo partly shown) [Example 3, 17-(Cyclopropylmethyl)-4,5-epoxy-14-fluoro-3-hydroxymorphinan-6-one] | > 135 mg/kg |
| Oc1ccc2c3c1O[C@H]1[C@@H](O)CCC4(F)C(C2)N(CC2CCC2)CCC314 (stereo partly drawn) [Example 6, 17-(Cyclobutylmethyl)-4,5-epoxy-14-fluoro-morphinan-3,6-diol (α-isomer)] | 30.4 mg/kg |
| CN1CC[C@]23c4c5ccc(O)c4OC2C(=O)CC[C@@]3(F)[C@H]1C5 (stereo partly shown) [Example 7, 17-Methyl-14-fluoro-3-hydroxy-4,5-epoxymorphinan-6-one] | 2.4 mg/kg |
| COc1ccc2c3c1O[C@H]1C4(CCC5(F)C(C2)N(CC2CCC2)CCC315)OCCO4 (stereo partly shown) [Example 8] | 11.1 mg/kg |
| COc1ccc2c3c1O[C@H]1C(=O)CCC4(F)C(C2)N(CC2CCC2)CCC314 (stereo partly shown) [Example 9] | 27.6 mg/kg |
| COc1ccc2c3c1O[C@H]1C4(CCC5(F)C(C2)N(C)CCC315)OCCO4 (stereo partly shown) [Example 10] | 5 mg/kg |
| COc1ccc2c3c1O[C@H]1C(=O)CCC4(F)C(C2)N(C)CCC314 (stereo partly shown) [Example 11] | 6.3 mg/kg |
